Results from patent publication US6893821B2, “Agents that modulate DNA-PK activity and methods of use thereof” (The Regents of the University of California, priority 2000, dated 2005).
“Also recorded” adds a separate entry of the source. Values belong to the molecule of their own block, whether it stands above or below them.

Tests used:
[1] = target: T1, Ku antigen (Ku70/Ku80 heterodimer) (Mus musculus, UniProt P23475+P27641); assay: EMSA inhibition study: cold ODN vs [32P]-labeled ds-ISS-ODN binding to Ku (affinity column fraction 20); details: for displacement of the interaction of [32P]-labeled ds-ISS-ODN with Ku: unlabeled ODN 0.1, 0.2 and 0.4 μg, 10 μg of fraction 20
T1 construct: from tissue; host or cells: mouse liver (BALB/c)
T1 sequence (P23475 2-608 limits assumed): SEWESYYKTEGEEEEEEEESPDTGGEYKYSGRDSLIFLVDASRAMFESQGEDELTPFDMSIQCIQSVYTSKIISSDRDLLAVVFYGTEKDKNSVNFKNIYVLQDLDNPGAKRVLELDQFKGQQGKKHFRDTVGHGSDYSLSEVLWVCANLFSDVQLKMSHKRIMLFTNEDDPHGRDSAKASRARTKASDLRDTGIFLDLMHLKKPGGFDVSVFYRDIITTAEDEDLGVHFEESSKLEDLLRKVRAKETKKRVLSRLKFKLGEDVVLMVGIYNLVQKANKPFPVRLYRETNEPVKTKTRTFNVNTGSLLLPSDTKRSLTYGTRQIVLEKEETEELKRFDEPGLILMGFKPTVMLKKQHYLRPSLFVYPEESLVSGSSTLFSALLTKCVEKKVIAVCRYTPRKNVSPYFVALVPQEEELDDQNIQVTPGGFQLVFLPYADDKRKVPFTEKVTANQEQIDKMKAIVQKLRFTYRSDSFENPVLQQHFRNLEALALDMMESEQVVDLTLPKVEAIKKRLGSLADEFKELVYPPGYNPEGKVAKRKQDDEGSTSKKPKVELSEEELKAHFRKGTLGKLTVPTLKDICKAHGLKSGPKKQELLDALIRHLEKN
T1 sequence (P27641 whole entry): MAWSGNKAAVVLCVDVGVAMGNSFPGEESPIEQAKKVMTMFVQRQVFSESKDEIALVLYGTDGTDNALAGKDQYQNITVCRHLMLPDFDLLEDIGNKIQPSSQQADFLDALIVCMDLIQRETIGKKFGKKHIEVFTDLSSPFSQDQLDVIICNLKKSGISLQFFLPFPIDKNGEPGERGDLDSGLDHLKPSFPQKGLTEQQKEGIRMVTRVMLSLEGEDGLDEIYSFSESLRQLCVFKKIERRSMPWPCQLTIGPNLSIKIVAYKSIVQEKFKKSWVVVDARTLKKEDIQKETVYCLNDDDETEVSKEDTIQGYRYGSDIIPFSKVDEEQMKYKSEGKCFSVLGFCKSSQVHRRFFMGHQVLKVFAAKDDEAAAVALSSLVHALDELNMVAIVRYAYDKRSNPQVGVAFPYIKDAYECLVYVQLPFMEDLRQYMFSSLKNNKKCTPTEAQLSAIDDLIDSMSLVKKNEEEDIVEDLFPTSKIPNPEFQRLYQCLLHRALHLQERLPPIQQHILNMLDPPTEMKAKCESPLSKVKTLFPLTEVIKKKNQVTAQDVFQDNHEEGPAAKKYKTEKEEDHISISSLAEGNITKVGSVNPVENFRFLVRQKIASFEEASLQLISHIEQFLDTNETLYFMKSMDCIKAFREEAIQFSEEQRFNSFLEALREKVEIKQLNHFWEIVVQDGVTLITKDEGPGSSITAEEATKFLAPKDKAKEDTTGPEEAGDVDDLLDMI
Description: Purification of the ISS binding protein was accomplished by sequential ion exchange, heparin and ISS-ODN affinity chromatography, as follows. Due to the relative small tissue weight per spleen, liver lysate was used after confirming its reactivity to in vivo ISS injection, as described above. Crude liver extracts from 220 mice (BALB/c, Jackson Lab., Bar Harbour, Me.) or 15 New Zealand White rabbits (Simunek, Vista, Calif.) were prepared in homogenization buffer (20 mM HEPES, pH 7.6, 250 mM KCl, 0.1 mM EDTA, 0.5 mM EGTA, 20% glycerol) with 250 mM KCl and protease and phosphatase inhibitors and then centrifuged at 100,000×g for 1.5 hours at 4° C. The supernatant (400 ml) was filtered and loaded onto a Porous 20 QE column (17 ml, Pharmacia). Two μl (10 μg) of each fraction were used in a gel retardation assay to identify the location of proteins containing DNA binding activity using [^32P]-labeled ds-ISS-ODN as a probe. Fractions containing ISS-ODN binding activity were pooled (450 ml), buffered exchanged to low salt (50 mM KCl) and loaded onto a Heparin column (2 ml). The active fractions were subsequently loaded onto a 2 ml ds-ISS-ODN affinity column [CNBr-activated Sepharose 4B (Pharmacia) coupled to 320 μg of ds-ISS-ODNs with the sequence 5′-[…]-3′; SEQ ID NO: 21]. The column was washed with 8 ml of homogenization buffer containing 50 mM KCl and the bound proteins were eluted with a 20 ml linear gradient of 50 mM to 1.55 M KCl. One-ml fractions were collected and 2 μl of each were used to test for DNA binding activity. The active fractions were concentrated, separated by SDS-PAGE and stained with Coomassie Blue. The appearance of two bands with estimated molecular weights of 70 KDa and 80 KDa correlated with the DNA binding activity. Sequence analysis (Harvard Microsequencing Facility) of peptides derived from the two bands identified Ku70 and Ku80, respectively.
Mouse liver extracts were purified through anion (QE), heparin and ISS-based affinity chromatography, as described above. Two μl of each fraction (10 μg) were incubated with [^32 P]-labeled ds-ISS-ODN at 4° C. for 30 minutes. The samples were separated on a 5% acrylamide gel and the protein-DNA complexes were detected by autoradiography. […] The active fractions were separated by sodium dodecyl sulfate-polyacrylamide gel electrophoresis (SDS-PAGE), stained with Coomassie blue and micro-sequenced.
To verify the binding specificity of the Ku protein to ISS-ODN, inhibition studies were performed using cold ss or ds ISS or mutated (M, i.e., control) ODNs. Ten μg of fraction 20 from the affinity column were incubated with [^32P]-labeled ISS-ODN in the presence of unlabeled (0.1, 0.2 and 0.4 μg, respectively) ss-ISS-ODN (lanes 3-5), ds-ISS-ODN (lanes 7-9), ss-M-ODN (lanes 11-13) or ds-M-ODN (lanes 15-17).

IκB kinase (IKK) complex = assay: IKK kinase assay on IKK complex immunoprecipitated from treated BMDM (IκBα N-terminus substrate); type: cell-based, mice
Description: Kinase assays and immunoblotting were performed according to Li et al. ((1999) J. Exp. Med. 189:1839-1845). Briefly, BMDM were treated with ISS-ODN (5 μg/ml), M-ODN (5 μg/ml) on ps and po backbones as indicated, LPS-free bacterial DNA or methylated bacterial DNA (5 μg/ml), LPS-free calf thymus DNA (5 μg/ml), LPS (10 μg/ml) or TNFα (10 ng/ml) for the indicated time periods. Cell lysates were prepared and normalized by immunoblotting (IB) with anti-IKKα polyclonal antibodies (Santa Cruz, Santa Cruz Biotech Inc., Calif.), anti-IKKβ polyclonal antbodies (Santa Cruz) or anti-DNA-PKcs monoclonal antibodies (NeoMarker, Calif.). IκB kinase (IKK) complex or DNA-PK complex from 100 μg of the lysates were immunoprecipitated by anti-IKKα or by anti-DNA-PKcs antibodies. The kinase activities (KA) were determined by a kinase assay using the N-terminus of IκBα (for IKK) or the N-terminus of p53 (for DNA-PK) as a substrate as previously described. Wang et al. (1992) Proc. Natl. Acad. Sci. USA 89:4231-4235; Li et al.(1999), supra; and Hammarsten et al. (2000) J. Biol. Chem. 275:1541-1545.

[2] = test system: IL-6, IL-12 message in liver; assay: RT-PCR for IL-6 and IL-12 message in livers of mice injected i.v. with ODN; type: in vivo; details: mice i.v. 200 μl (1 μg/μl in PBS) of ss or ds ODN; 2.5 hours
DNA-PK = target: T2, DNA-PK (Homo sapiens, UniProt P12956+P13010+P78527); assay: In vitro DNA-PK phosphorylation assay (affinity-purified DNA-PK, GST-p53 (1-70) substrate); type: biochemical; details: 30° C., 30 minutes; ps-ss ODNs 0-1, po-ISS-ODN 20-100, po-ds-ISS-ODN 0-10, genomic DNAs 1-5 ng/reaction
T2 construct: purchased Promega
Description: The in vitro DNA-PK phosphorylation assay was performed according to Hammarsten et al. (2000), supra, with modification. Briefly, affinity-purified DNA-PK (Promega, Mo.) was incubated with various DNA preparations (described below), 0.5 μg of GST-p53 (1-70) and 3.3 μCi of γ-^32p-ATP in a 20 μl reaction buffer (10 mM Tris-Cl, 5 mM MgCl2, 0.3 mM EDTA and 10 μM ATP) at 30° C. for 30 minutes. The reaction was stopped by addition of 4× loading buffer. The samples were boiled, loaded on 9% SDS-PAGE, transferred onto a PVDF membrane and visualized by autoradiography.
The ODNs (ps-ss) used include an ISS-ODN with an active CpG motif (AACGTT), a methylated ISS-ODN at the ^5C of the CpG dinucleotide (AA*CGTT) and various control ODNs. These ODNs were incubated at concentrations of 0, 0.1, 0.3, or 1 ng/reaction. The po-ISS-ODN was incubated at concentration of 20, 50 or 100 ng/reaction. The po-ds-ISS-ODN was incubated at concentration of 0, 0.5, 1, 2, 5 or 10 ng/reaction. The bacterial or calf thymus DNAs were each incubated at concentration of 1, 2 or 5 ng/reaction. Electrophoretic gel mobility shift assay (EMSA) was performed as previously described. Chu et al. (1999) Immunity 11:721-731; and Li et al., 1999, supra). In vitro IKK kinase assays were performed using purified IKK derived from Sf9 insect cell lysates as was previously described. Zandi et al. (1998) Science 281:1360-1363.

[3] = test system: bone marrow derived macrophages (BMDM); assay: IL-6 and IL-12 levels in BMDM culture supernatants by ELISA; type: cell-based, mice; details: BMDM
Description: Ku70^−/− and Ku80^−/− mice and their wild-type (wt) control on the 129 genetic background were generated by Dr. G. Li and bred at Memorial Sloan-Kettering Cancer Center (MSKCC), New York, N.Y. BMDM from wt, Ku70^−/− and Ku80^−/− mice (MSKCC) were prepared as was previously published (Martin-Orozco et al. (1999) Int. Immunol. 11:1111), and maintained in DMEM with 10% FBS, antibiotics and 20% L-cell medium and cultured for about 10 days to allow them to mature. BMDM were seeded (2.5×10^5/well in triplicate) on 96-well plates and treated with LPS (10 μg/ml), ISS-ODN (5 μg/ml) or M-ODN (5 μg/ml).
BMDM (2.5×10^5/well) from wt, or Ku70^−/− and Ku80^−/− mice were treated with LPS (1 μg/ml), ISS-ODN (5 μg/ml) or M-ODN (5 μg/ml) for 24 hours. IL-6 (A) or IL-12 (B) levels in the supernatants were determined by ELISA. Results are means±S.D, of 5 separate experiments for wt and Ku70^−/− and 3 separate experiments for Ku80^−/− mice. (C) BMDM were incubated with LPS (10 μg/ml) or ISS-ODN (5 μg/ml) for 6.5 hours. Total RNA was isolated and analyzed for the presence of IL-6, IL-12 and GAPDH messages by a Northern blot assay, as described in Example 1. Results are means±S.D. of 5 separate experiments for wt and Ku70^−/− and 3 separate experiments for Ku80^−/− mice.
DNA-PKcs^−/− and their wt control mice on the 129 genetic background were generated by Dr. G. C. Li and bred at Memorial Sloan-Kettering Cancer Center, New York, N.Y. IKKβ^−/− Tnfr1^−/− mice were generated by Drs. Z-W Li and Karin M. ATM^−/− mice on the C57BL/6 background were generated and bred by Dr. Y. Xu (UCSD) as was previously described (Xu et al.(1996) Genes Dev. 10:2411-2422) while their wild-type (wt) control were purchased from Jackson Laboratories (Bar Harbor, Me.). BMDMs from wt, DNA-PKcs^−/− mice, IKKβ^−/− Tnfr1^−/− and ATM^−/− mice were prepared as was previously published (Martin-Orozco et al. (1999) Intl. Immunol. 11:1111-1118), maintained in DMEM with 10% FBS, antibiotics and 20% L-cell medium and cultured for 7-10 days to allow them to mature. Prior to use BMDM were seeded (2.5×10^5/well in triplicate) in 96-well plates and than treated with LPS (1 μg/ml), ISS-ODN (5 μg/ml) or M-ODN (5 μg/ml), po-ISS-ODN (10 μg/ml) or po-ds-ISS-ODN (10 μg/ml), LPS-free, ultra pure bacterial DNA (E. coli, Sigma) (15 μg/ml) or methylated bacterial DNA or LPS-free, ultra pure calf thymus DNA (Sigma) (15 μg/ml). Methylation of bacterial DNA was performed by SssI methylase (Biolab, Boston, Mass.) (15 μg/ml) following manufacturer's instruction. Where indicated the PI3K inhibitor wortmannin (Wm), at various concentrations, was added to ISS-ODN or LPS stimulated BMDMs. After 24 hours in culture, the supernatants were collected and assayed for IL-6 and IL-12 levels by ELISA kits (PharMingen, San Diego, Calif.).

Molecule: 5′-TGACTGTGAAGGTTAGAGATGA-3′ [M-ODN, reference compound]
- interaction of Ku with ODN [1]: lack of interaction
- IKK activation (IκB kinase (IKK) complex; wt BMDM): little increase in IKK activity
- IKK activation, concentration series (IκB kinase (IKK) complex; wt BMDM (FIG. 5B)): little IKK activation
- IL-6 and IL-12 message in liver (RT-PCR) [2]: did not display any immune stimulation; also recorded: lack of induction

Molecule: 5′-TGACTGTGAA*CGTTAGAGATGA-3′ (DNA TGACTGTGAACGTTAGAGATGA; 5-methylcytosine, chemistry not fully specified) [Methylated ISS-ODN, *C denotes 5-methyl C, reference compound]
- DNA-PK activity in vitro (phosphorylation of the N-terminal portion of p53) (DNA-PK): weaker DNA-PK activators than their unmethylated counterparts

Molecule: O=c1cc(N2CCOCC2)oc2c(-c3ccccc3)cccc12 [Ly, Ly294002, reference compound]
- inhibition of LPS-induced secretion of IL-6 and IL-12 [3]: did not inhibit

Molecule: COC[C@H]1OC(=O)c2coc3c2[C@@]1(C)C1=C(C3=O)[C@@H]2CCC(=O)[C@@]2(C)C[C@H]1OC(C)=O [Wm, wortmannin, reference compound]
- inhibition of LPS-induced secretion of IL-6 and IL-12 [3]: did not inhibit
- effect on IKK activation by TNFα (IκB kinase (IKK) complex; Wm at 1000 nM): no effect

Next, values leading:

- IKK activation (IκB kinase (IKK) complex; DNA-PKcs-/- BMDM as compared to wt): fully responsive
Molecule: TNFα [reference compound]

- displacement of the interaction of [32P]-labeled ds-ISS-ODN with Ku [1]: displaced the interaction
Molecule: 5′-TGACTGTGAACGTTCGAGATGA-3′ [ds-ISS-ODN]

- displacement of the interaction of [32P]-labeled ds-ISS-ODN with Ku [1]: did not have any significant effect
Molecule: 5′-TGACTGTGAACCTTAGAGATGA-3′ [ds-M-ODN, reference compound]
